pIC50: −log10 of the molar value. Starred links: 1 amine or outer side, 2 acyl side, 3 side chain; linkers in the order of their positions; H or OH if unused. Positions of bridges follow the written chain, without caps; N, C: chain ends. Non-standard residues stand in square brackets, D forms with d. Residues, ends and D or L forms follow the SMILES beside them. ξ: configuration not given here. *: point of attachment. dArg(Nω-CH2C6H4-3-CH2Gua) = N=C(N)NCc1cccc(CNC(=N)NCCC[C@@H](N)C(=O)O)c1; Bip(4'-NH) = O=C([C@H](Cc1ccc(-c2ccc(N[*:3])cc2)cc1)N[*:1])[*:2]; Bip(4'-COOH) = N[C@@H](Cc1ccc(-c2ccc(C(=O)O)cc2)cc1)C(=O)O; Bip(4'-NHAc) = CC(=O)Nc1ccc(-c2ccc(C[C@H](N)C(=O)O)cc2)cc1; Ala(imidazol-2-yl) = N[C@@H](Cc1ncc[nH]1)C(=O)O; Ala(morpholin-4-yl) = N[C@@H](CN1CCOCC1)C(=O)O; Benzoyl(3-OCH2COOH) = O=C(O)COc1cccc(C(=O)*)c1; Bip = N[C@@H](Cc1ccc(-c2ccccc2)cc1)C(=O)O; X60 = O=C(c1ccc2c(c1)CCc1ccccc1-2)*; Val(3-OH) = CC(C)(O)[C@H](N)C(=O)O; 2Pal = N[C@@H](Cc1ccccn1)C(=O)O; 3Pal = N[C@@H](Cc1cccnc1)C(=O)O; Cha = N[C@@H](CC1CCCCC1)C(=O)O; Chg = N[C@H](C(=O)O)C1CCCCC1; Tle = CC(C)(C)[C@H](N)C(=O)O; ξP = O=C(O)C1CCCN1; Sar = CNCC(=O)O

The target in one assay is TNFα (Homo sapiens, UniProt P01375). Put plainly: TNF-Induced HEK-Blue Assay.
TNFα, sequence (P01375 77-233 limits assumed): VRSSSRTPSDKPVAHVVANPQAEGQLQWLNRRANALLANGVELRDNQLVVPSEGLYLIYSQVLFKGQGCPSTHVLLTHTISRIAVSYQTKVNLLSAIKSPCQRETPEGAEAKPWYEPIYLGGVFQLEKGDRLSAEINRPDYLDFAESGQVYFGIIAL
Details: not given
It is filed as cell-based.
One may read the pIC50 as the IC50 on a negative log10 scale, so that one unit is a factor of ten. On to `CC[C@H](C)[C@@H]1NC(=O)[C@@H]2CCCN2C(=O)[C@H](C(C)C)NC(=O)[C@H](CCCNC(=N)N)NC(=O)[C@H](CC(=O)O)NC(=O)[C@@H]2CCCN2C(=O)CN(C)C(=O)[C@H](Cc2ccc(-c3ccccc3)cc2)NC(=O)[C@H](Cc2ccc(-c3ccccc3)cc2)NC(=O)[C@H](Cc2ccccc2)NC(=O)CSC[C@@H](C(=O)NCC(N)=O)NC(=O)[C@H](CC(C)C)NC(=O)[C@H](CCCNC(=N)N)NC1=O` [Example 20] ({CH2CO}-F[Bip][Bip][Sar]PDRVPIRLCG-NH2; thioether N-13), for which the pIC50 was 5.70 to 6.70.

Staying with this assay, now noted: HEK-Blue-CD40L cells, NF-kB-driven secreted alkaline phosphatase reporter; TNFα 0.5 ng/ml; 18 h; read-out: TNF induced HEK-Blue assay IC50 value.
With `CC(C)C[C@@H]1NC(=O)[C@H](CCCNC(=N)N)NC(=O)[C@H](C(C)C)NC(=O)[C@@H]2CCCN2C(=O)[C@H](C(C)C)NC(=O)[C@@H](CCCNC(=N)NCc2cccc(CNC(=N)N)c2)NC(=O)[C@H](CC(=O)O)NC(=O)[C@@H]2CCCN2C(=O)CN(C)C(=O)[C@H](Cc2ccc(-c3ccc(NC(=O)c4cccc(OCC(=O)O)c4)cc3)cc2)NC(=O)[C@H](Cc2ccc(-c3ccccc3)cc2)NC(=O)[C@H](CN2CCOCC2)NC(=O)CSC[C@@H](C(=O)NCC(N)=O)NC1=O` [Example 572] ({CH2CO}-[Ala(morpholin-4-yl)][Bip][Bip(4'-NH)](Benzoyl(3-OCH2COOH))[Sar]PD[dArg(Nω-CH2C6H4-3-CH2Gua)]VPVRLCG-NH2; thioether N-13), the pIC50 was > 7.30. On the same count and under the same terms, then `CC(C)C[C@@H]1NC(=O)[C@H](Cc2ccc(O)cc2)NC(=O)[C@H](C(C)C)NC(=O)[C@H](Cc2ccccn2)NC(=O)[C@H](C(C)C)NC(=O)[C@H](CCCNC(=N)N)NC(=O)[C@H](CC(=O)O)NC(=O)[C@H](Cc2ccc(O)cc2)NC(=O)CN(C)C(=O)[C@H](Cc2ccc(-c3ccccc3)cc2)NC(=O)[C@H](Cc2ccc(-c3ccccc3)cc2)NC(=O)[C@H](CN2CCOCC2)NC(=O)CSC[C@@H](C(=O)NCC(N)=O)NC1=O` [Example 109] ({CH2CO}-[Ala(morpholin-4-yl)][Bip][Bip][Sar]YDRV[2Pal]VYLCG-NH2; thioether N-13), with 5.70 to 6.70. For the compound `CC[C@H](C)[C@@H]1NC(=O)[C@@H]2CCCN2C(=O)[C@H]([C@@H](C)CC)NC(=O)[C@@H](CCCNC(=N)N)NC(=O)[C@H](CC(=O)O)NC(=O)[C@H](Cc2ccccc2)NC(=O)CN(C)C(=O)[C@H](Cc2ccc(-c3ccc(NC(C)=O)cc3)cc2)NC(=O)[C@H](Cc2ccc(-c3ccc(C(=O)O)cc3)cc2)NC(=O)[C@H](CN2CCOCC2)NC(=O)CSC[C@@H](C(=O)NCC(N)=O)NC(=O)[C@H](CC(C)C)NC(=O)[C@H](Cc2cnc[nH]2)NC1=O` [Example 284] ({CH2CO}-[Ala(morpholin-4-yl)][Bip(4'-COOH)][Bip(4'-NHAc)][Sar]FD[dR]IPIHLCG-NH2; thioether N-13), the pIC50 was 6.70 to 7.30.

Regarding `CC(C)C[C@@H]1NC(=O)[C@H](CCCNC(=N)N)NC(=O)[C@H](C(C)C)NC(=O)[C@@H]2CCCN2C(=O)[C@H](Cc2cccnc2)NC(=O)[C@H](CCCNC(=N)N)NC(=O)[C@H](CC(=O)O)NC(=O)[C@@H]2CCCN2C(=O)CN(C)C(=O)[C@H](Cc2ccc(-c3ccccc3)cc2)NC(=O)[C@H](Cc2ccc(-c3ccccc3)cc2)NC(=O)[C@H](Cc2ccccc2)NC(=O)CSC[C@@H](C(=O)NCC(N)=O)NC1=O` [Example 26] ({CH2CO}-F[Bip][Bip][Sar]PDR[3Pal]PVRLCG-NH2; thioether N-13), the pIC50 is 5.70 to 6.70.

Turning to `CC(=O)Nc1ccc(-c2ccc(C[C@@H]3NC(=O)[C@H](Cc4ccc(-c5ccccc5)cc4)NC(=O)[C@H](CN4CCOCC4)NC(=O)CSC[C@@H](C(=O)NCC(N)=O)NC(=O)[C@H](CC(C)C)NC(=O)[C@H](CCCNC(=N)N)NC(=O)[C@H](C(C)C)NC(=O)[C@@H]4CCCN4C(=O)[C@H](C(C)C)NC(=O)[C@@H](CCCNC(=N)N)NC(=O)[C@H](CC(=O)O)NC(=O)[C@@H]4CCCN4C(=O)CN(C)C3=O)cc2)cc1` [Example 128] ({CH2CO}-[Ala(morpholin-4-yl)][Bip][Bip(4'-NHAc)][Sar]PD[dR]VPVRLCG-NH2; thioether N-13), the pIC50 was > 7.30. Still for that read-out and setting: then `CC(=O)Nc1ccc(-c2ccc(C[C@@H]3NC(=O)[C@H](Cc4ccc(-c5ccccc5)cc4)NC(=O)[C@H](CC4CCCCC4)NC(=O)CSC[C@@H](C(=O)NCC(N)=O)NC(=O)[C@H](CC(C)C)NC(=O)[C@H](Cc4cnc[nH]4)NC(=O)[C@H](C(C)C)NC(=O)[C@@H]4CCCN4C(=O)[C@H](CC(N)=O)NC(=O)[C@@H](CCCNC(=N)N)NC(=O)[C@H](CC(=O)O)NC(=O)[C@@H]4CCCN4C(=O)CN(C)C3=O)cc2)cc1` [Example 253] ({CH2CO}-[Cha][Bip][Bip(4'-NHAc)][Sar]PD[dR]NPVHLCG-NH2; thioether N-13), with 6.70 to 7.30; and `CC[C@H](C)[C@@H]1NC(=O)[C@@H](CCCNC(=N)N)NC(=O)[C@H](CC(=O)O)NC(=O)[C@@H]2CCCN2C(=O)CN(C)C(=O)[C@H](Cc2ccc(-c3ccc(NC(C)=O)cc3)cc2)NC(=O)[C@H](Cc2ccc(-c3ccc(C(=O)O)cc3)cc2)NC(=O)[C@H](C(C)(C)C)NC(=O)CSC[C@@H](C(=O)NCC(N)=O)NC(=O)[C@H](CC(C)C)NC(=O)[C@H](Cc2ccc(O)cc2)NC(=O)[C@H](C2CCCCC2)NC(=O)[C@@H]2CCCN2C1=O` [Example 270] ({CH2CO}-[Tle][Bip(4'-COOH)][Bip(4'-NHAc)][Sar]PD[dR]IP[Chg]YLCG-NH2; thioether N-13), with 6.70 to 7.30; and `CC[C@H](C)[C@@H]1NC(=O)C2CCCN2C(=O)[C@H]([C@@H](C)CC)NC(=O)[C@@H](CCCNC(=N)N)NC(=O)[C@H](CC(=O)O)NC(=O)[C@H](Cc2ccccc2)NC(=O)CN(C)C(=O)[C@H](Cc2ccc(-c3ccc(NC(=O)c4ccc5c(c4)CCc4ccccc4-5)cc3)cc2)NC(=O)[C@H](Cc2ccc(-c3ccc(C(=O)O)cc3)cc2)NC(=O)[C@H](C(C)(C)C)NC(=O)CSC[C@@H](C(=O)NCC(N)=O)NC(=O)[C@H](CC(C)C)NC(=O)[C@H](Cc2ncc[nH]2)NC1=O` (some centres unmarked) [Example 419] ({CH2CO}-[Tle][Bip(4'-COOH)][Bip(4'-NH)](X60)[Sar]FD[dR]I[ξP]I[Ala(imidazol-2-yl)]LCG-NH2; thioether N-13), with 5.70 to 6.70.

As to `CC(C)C[C@@H]1NC(=O)[C@H](Cc2ccc(O)cc2)NC(=O)[C@H](C(C)C)NC(=O)[C@@H]2CCCN2C(=O)[C@H](Cc2cccnc2)NC(=O)[C@@H](CCCNC(=N)N)NC(=O)[C@H](CC(=O)O)NC(=O)[C@H](Cc2ccc(O)cc2)NC(=O)CN(C)C(=O)[C@H](Cc2ccc(-c3ccccc3)cc2)NC(=O)[C@H](Cc2ccc(-c3ccccc3)cc2)NC(=O)[C@H](CN2CCOCC2)NC(=O)CSC[C@@H](C(=O)NCC(N)=O)NC1=O` [Example 118] ({CH2CO}-[Ala(morpholin-4-yl)][Bip][Bip][Sar]YD[dR][3Pal]PVYLCG-NH2; thioether N-13), the pIC50 was 5.70 to 6.70.

Take `CC(=O)Nc1ccc(-c2ccc(C[C@@H]3NC(=O)[C@H](Cc4ccc(-c5ccccc5)cc4)NC(=O)[C@H](C(C)(C)O)NC(=O)CSC[C@@H](C(=O)NCC(N)=O)NC(=O)[C@H](CC(C)C)NC(=O)[C@H](Cc4ccc(O)cc4)NC(=O)[C@H](C(C)C)NC(=O)[C@@H]4CCCN4C(=O)[C@H](C(C)C)NC(=O)[C@H](CCCNC(=N)N)NC(=O)[C@H](CC(=O)O)NC(=O)[C@@H]4CCCN4C(=O)CN(C)C3=O)cc2)cc1` [Example 194] ({CH2CO}-[Val(3-OH)][Bip][Bip(4'-NHAc)][Sar]PDRVPVYLCG-NH2; thioether N-13): the pIC50 was 6.70 to 7.30.

These data come from patent US20250145665A1, “MACROCYCLIC PEPTIDES USEFUL AS MODULATORS OF TNF ALPHA” (Bristol-Myers Squibb Company, priority 2023, published 2025).
